Holding throughout (assay type): physicochemical
Series [1] can be described thus: AAPH stress of proteins with or without NAT, site-specific Trp oxidation by LC-MS tryptic peptide mapping. The note with it: Mab2 W53 and W106, Mab4 W52, Mab1 W103, Mab6 W103/104; 1 mM AAPH; NAT 0.05-1 mM. Here is the method: Proteins Mab1, Mab2, and Mab3/Mab4 were dialyzed into a sodium acetate buffer (20 mM sodium acetate pH 5.5) and Mab5/Mab6 was dialyzed into a histidine-based buffer (20 mM histidine hydrochloride pH 5.5). Protein solutions were diluted to a final concentration of 1 mg/mL protein in the corresponding buffer and 1 mM 2,2′-Azobis(2-amidinopropane) dihydrochloride (AAPH) was added. N-acetyl-Trp (NAT) was added from a concentrated stock solution to each protein solution at concentrations from 0 to 5 mM. Samples were incubated at 40° C. for 16 hours followed by quenching with methionine and buffer exchange to the initial dialysis buffer plus 100 mM sucrose.
Site-specific modifications of AAPH-stressed samples of Mab2, Mab1, and Mab3/Mab4 were monitored using a microscale tryptic peptide digest followed by liquid chromatography-mass spectrometry (LC-MS) (Anderson, N. et al., Nov. 20, 2014, American Pharmaceutical Review). […]
Peptide mapping of each digested sample was performed on a Waters Acquity H-Class UHPLC coupled to a Thermo Q Exactive Plus high resolution mass spectrometry system (HRMS). […] Column effluent was monitored at 214 nm. […] The oxidation level at each site was determined by extracted ion chromatography (EIC) using the Thermo XCalibur biopharmaceutical characterization software. […]

A short description of series [2]: Fenton stress of NAT in formulation buffer, RP-HPLC at 240 nm. Particulars: for % NAT degradation ± 1SD: Fenton stress (0.2 mM FeCl2, 10 ppm H2O2, 3 hours 40° C.). Here is the method:
FeCl2 (Sigma Aldrich, 98% purity) and H2O2 (Sigma Aldrich, 30% w/w in H2O) were added to a final concentration of 0.2 mM and 10 ppm, respectively, to a histidine-containing buffer at pH 5.5 with 0.3 mM NAT ±5 mM L-Met, pH 5.5. Upon addition of H2O2 the vials were vortexed briefly and incubated for 3 hours at 40° C. Oxidation was quenched by the addition of L-Met to a final concentration of 100 mM. After the addition of the quenching solution, the final NAT concentration was 0.2 mM.
(§1) NAT and NAT degradants were separated on an Agilent 1200 series HPLC or Waters H Class UPLC using an Agilent ZORBAX SB-C18 3.5 μm, 4.6×75 mm reverse phase column. Column temperature was held at 30±0.8° C. by a thermostat controller. The gradients used for HPLC and UPLC are listed in Tables 5 and 6, respectively (note: the shorter gradient on the UPLC was designed to accommodate earlier retention times and the column re-equilibration period was elongated due to the larger range of system pressure at a flow rate of 1.0 ml/min). NAT degradation products were detected at 240 nm. The standard bandwidth setting (8 nm for Agilent 1200 HPLC, 4.8 nm for Waters H-Class) was used for analysis on each instrument. The autosampler was maintained at 5±3° C. 10 nmol of NAT and/or NAT degradants (50 μl for most samples) was injected on to the column for analysis. The chromatograms were processed using Dionex Chromeleon software.
Total NAT degradation for each sample was calculated by comparing NAT peak area to the control sample for each stress model (Table 7). NAT degradation ranged from 3% (thermal stress, non-His buffer) to 83% (ICH light stress, His buffer).

A short description of series [3]: Thermal stress of NAT in formulation buffer, RP-HPLC at 240 nm. The note with it: elevated temperature (40° C., 5 months), His buffer, 1.0 mM NAT. The procedure:
Histidine and non-histidine buffers containing 1.0 mM NAT were aliquoted into sterile glass vials (5 ml/vial, 6 vials per buffer). Vials were stored in a dark box at the indicated temperatures during the stress and transferred to −70° C. for storage until analysis (timepoints taken monthly for five months). Initial time points for samples of each buffer solution were transferred immediately to −70° C. Prior to analysis, the samples were thawed and diluted with Milli-Q H2O to a final NAT concentration of 0.2 mM.
as §1, with “10 nmol of NAT and/or NAT degradants (50 μl for most samples) was injected on to the column for analysis. The chromatograms were processed using Dionex Chromeleon software.” left out
Total NAT degradation for each sample was calculated by comparing NAT peak area to the control sample for each stress model (Table 7). […]

Several values for one entry are separate records, joined by “and”; a condition that tells them apart may be missing. Identical values can stand only once.

In the case of `CC(=O)N[C@@H](Cc1c[nH]c2ccccc12)C(=O)O` [NAT, N-acetyl-tryptophan], the “NAT protection from AAPH-induced oxidation of oxidation-prone tryptophan residues” value in series [1] is listed as “able to protect each tested residue from oxidation”. Further, the “improvement to NAT stability by 5 mM Met (total NAT loss)” value in series [2] (Fenton model) turned out to be 25%. Also, the “% NAT degradation ± 1SD” value was 15.2 ± 0.7 (n = 3) % in series [2] (His + 5 mM Met buffer, 0.3 mM NAT); 40 ± 3 (n = 3) % in series [2] (His buffer pH 5.5, 0.3 mM NAT); 11.1 (n = 1) % in series [3]. Besides, in series [2] (Fenton stress, under all tested conditions), the “NAT degradation (loss)” value is 30-40% and 33-41%.

Source of the values: patent US20200246465A1, “USE OF TRYPTOPHAN DERIVATIVES FOR PROTEIN FORMULATIONS” (Genentech, Inc., priority 2015, published 2020).
